Results from patent publication US20080188449A1, “Treatment of Conditions Caused By Calcium Abnormalities” (priority 2004, published 2008).

Legend:
[1] = tested on: NFκB transactivation; experiment: κB-luciferase reporter assay (TNF-α induced); type: cell-based; details: 5 hours
Procedure: Having established that triptolide induced cell death is dependent upon free calcium concentration, Applicants next determined if this was also a requirement for the inhibition of NFκB transcription. HeLa cells were transiently transfected with the κB-luciferase reporter construct for 8 hours before being washed and then cultured in the presence or absence of calcium containing medium for 16 hours. Triptolide (100 nM) was pre-incubated with cells for 1 hour before addition of 15 ng/ml of TNF-α for 4 hours.
As an additional experiment, transcriptional activity was also assessed by site-directed calcium buffering. HeLa cells were co-transfected with the κB-luciferase plasmid as well as one of the following constructs: GFP empty vector, NES-PV-GFP, or NLS-PV-GFP and proper GFP localization was confirmed. Cells were grown in the presence of calcium for 24 hours before the addition of 100 nM triptolide and 15 ng/ml TNF-α.
NFκB transactivation was examined using the κb-luciferase reporter construct. HeLa cells were transiently transfected and pre-treated with 0-100 nM triptolide for one hour prior to TNF-α addition. Cells were assessed for NFκB driven luciferase expression after an additional five hours of incubation, at which time TNF-α had induced transcriptional activity by approximately 15-fold in control cells. […] The results thus far support a divergence of triptolide-mediated functions: the pathway regulating growth arrest/death is more sensitive to triptolide and calcium than the mechanism leading to transcriptional repression of NFκB.
(§1) Based upon Applicants' studies examining the concentration dependent effect of triptolide on the two measured biological endpoints, cell death and transcriptional repression, Applicants wanted to determine how modulating triptolide's structure may also discriminate between the two pathways. For cell viability assays, HeLa cells were incubated with 0, 0.1, 1, or 10 μM of each analog or triptolide for 24 hours and then counted using trypan blue dye exclusion. […] NFκB transcriptional inhibition was measured using the κB-luciferase assay as previously described following 5 hours of incubation with each analog (0-10 μM) and TNF-α addition.
A triple κB promoter-Luciferase reporter construct was a gift of Sankar Ghosh (Yale University). HeLa cells were plated at a density of 2×10^5 in 12 well plates and transfected with 100 ng of the κB-Luciferase plasmid plus Lipofectamine 2000 (Invitrogen) for 24 hours before the addition of 100 nM triptolide for one hour and 15 ng/ml of recombinant (human) TNF-α (Roche) for an additional five hours. The transfection efficiency of HeLa was determined to be 80-90%, and all samples were normalized to protein concentration. Luciferase assays were performed using the Firefly luciferase kit as per manufacturer's protocol (Promega) and results obtained on the Wallac Victor2 1420 Multilabel Counter (Perkin Elmer).

[2] = tested on: HeLa cells; experiment: [^3H]-triptolide competition binding in HeLa cells; details: for competition for [^3H]-triptolide binding: 1 μM competitor
Procedure: To gain insight into triptolide's mechanism of action Applicants sought to determine its specific binding activity utilizing a system employing [^3H]-triptolide. In addition to competition with 1 μM or 10 μM unlabeled triptolide, Applicants also measured the binding affinities of triptolide analogs (FIG. 1A). These analogs have been previously described and differ structurally from triptolide in the hydrolysis of the 12,13 epoxide (2), and formation of the ketone at the C-14 hydroxyl (3) (FIG. 1A). […] The effective interaction of these analogs with a presumed triptolide binding entity led us to their use in subsequent experiments addressing the mode of triptolide's biological functions.
(§2) To address first the nature of triptolide binding within the cell, Applicants determined this interaction was reversible as [^3H]-triptolide labeling was out competed by subsequent addition of excess unlabeled triptolide (FIG. 2A). […] Although 25% of the total cellular counts (i.e., representing bound triptolide) were found in the cytosolic fraction, it is uncertain whether this is specific binding or simply that free triptolide had dissociated from its binding protein due to experimental manipulation during fractionation. Since the data thus far had only shown binding within whole cells, Applicants next determined if this triptolide binding protein could be further characterized and/or enriched by its association with chromatographic reagents. HeLa cells were once again labeled with [^3H]-triptolide and total cell lysates were then passed over the anion exchange resin DEAE. Batch elutions with increasing NaCl concentrations were used to disassociate interactions of variable charge. […] Importantly, Applicants also observed that [^3H]-triptolide would only bind to intact cells in culture but would not bind to any component of a total cellular lysate as assessed by interaction with the DEAE resin. Negative results for a triptolide binding interaction were also observed with DNA-cellulose and the cation exchange resin SPFF (sulphopropyl).
Labeling studies were performed by the addition of approximately 30 nM [^3H]-triptolide directly into the culture media for one hour at 37° C. For cold competition studies, 1 μM triptolide was incubated with the cells for one hour before or after the addition of [^3H]-triptolide. Triptolide analog studies followed a similar protocol where concentrations used for competition were either 1 or 10 μM added before [^3H]-triptolide. Medium was removed and cells were washed 3× in cold PBS. Total cell lysates were prepared (150 mM NaCl, 50 mM Tris-HCl pH 7.4, 1 mM EDTA, 1% Triton X-100, and Complete protease inhibitors (Roche)) and protein was quantitated before measuring the [^3H]-triptolide binding activity via liquid scintillation.

[3] = tested on: HeLa cells; experiment: HeLa cell viability by trypan blue dye exclusion; type: cell-based
Procedure: Since extracellular calcium concentration can influence triptolide binding Applicants sought to determine if the presence of calcium influences the rate of triptolide-mediated apoptosis. To first establish the growth rate of HeLa in media±calcium, cell counts were performed over a 72 hour time course. Although calcium-free media caused cells to detach more easily, the overall growth rates were similar where cell doubling occurred every 24 hours on average (FIG. 3B). For triptolide experiments, cells were initially equilibrated in medium±calcium for 16 hours before the addition of 100 nM triptolide. Cell death was assessed by trypan blue dye exclusion at 24, 48, and 72 hours post drug treatment. In the presence of calcium-containing medium, triptolide induced at least 50% cell death by 24 hours with this trend continuing through later time points (FIG. 3C).
Applicants' results have implicated reversible binding of triptolide to a potential binding protein or complex that can be regulated by calcium. To understand if triptolide function is further separable between cell death and NFκB inhibition, Applicants examined the effect of concentration on these two endpoints. HeLa cells were cultured in the presence of 0, 10, 25, 50, or 100 nM of triptolide and separately assessed for cell death or the ability to suppress NFκB transactivation promoted by TNF-α. Following 24-48 hours of culture, viable cells were recovered and counted. Following 24 hours, triptolide concentrations from 25-100 nM caused greater than 50% of the cells to undergo cell death as assessed by detachment, clumping and the failure to exclude trypan blue dye. […] This is consistent with previous studies showing that low doses of triptolide cause cell cycle arrest rather than apoptosis (Kiviharju, et al., 2002, Clin Cancer Res 8, 2666-2674).
as §1
HeLa cells were incubated in DMEM or SMEM (Gibco) media+10% FBS and maintained at 37° C. in 5% CO2 for all experiments. HeLa cell viability was assessed by trypan blue dye exclusion, as well as by morphological examination (non-viable cells were rounded and detached from culture plate).

[4] = tested on: HeLa cells; experiment: Cellular fractionation of [^3H]-triptolide labeled HeLa cells; type: binding
Text: as §2, with “DEAE.” for “DEAE. Batch elutions with increasing NaCl concentrations were used to disassociate interactions of variable charge.”, “Negative results for a triptolide binding interaction were also observed with DNA-cellulose and the cation exchange resin SPFF (sulphopropyl).” left out
For cellular fractionation studies, cells were allowed to swell on ice and lysed by passage through a syringe in a hypotonic lysis buffer (10 mM Tris-HCl+complete protease inhibitors). […] Gel slices were measured out in equal increments and the molecular weight range of each was calculated. […]

[5] = tested on: HeLa cells; experiment: [^3H]-triptolide binding with or without extracellular calcium
Text: To understand further the nature of triptolide's interaction within the cell, Applicants altered cell culture conditions to examine if [^3H]-triptolide binding would be affected. […] Additionally, it has been established that aberrant calcium signaling can result in cell death (Rizzuto, et al., 2003, Oncogene 22, 8619-8627; Orrenius, et al., 2003, Nat Rev Mol Cell Biol 4, 552-565). Due to triptolide's own link with NFκB and NF-AT and its propensity to induce cell death, Applicants examined if triptolide binding could be modulated by free calcium levels. Adherent HeLa cells were cultured in the presence or absence of calcium containing medium for 16 hours before [^3H]-triptolide addition. […] It is also noteworthy that an increase in cell density (not cell number) also increases triptolide binding regardless of calcium levels. Additionally, specific calcium chelation by 10 mM EGTA for one hour in calcium containing medium increased binding by nearly 2 fold.
Labeling studies were performed by the addition of approximately 30 nM [^3H]-triptolide directly into the culture media for one hour at 37° C. […] Total cell lysates were prepared (150 mM NaCl, 50 mM Tris-HCl pH 7.4, 1 mM EDTA, 1% Triton X-100, and Complete protease inhibitors (Roche)) and protein was quantitated before measuring the [^3H]-triptolide binding activity via liquid scintillation.

[6] = tested on: HeLa cells; experiment: [^3H]-triptolide saturation (specific) binding assay; details: saturation plot
Procedure: Based upon the data above, Applicants next sought to determine if triptolide binding was saturable and if more than one protein (or binding site) was being targeted. Determination of the [^3H]-triptolide binding affinity (KD) and the binding capacity per cell (Bmax) were calculated using a saturation plot. HeLa cells were cultured to 90% confluency and subsequently treated with 0-100 nM of [^3H]-triptolide for one hour. Non-specific binding was defined using 2 μM cold triptolide as competitor. Bmax was calculated to be 99±19 fmol triptolide bound/10^5 cells of triptolide binding sites.
Saturation binding assays were accomplished in HeLa cells adhered on 6-well plates in DMEM+10% FBS. All samples were at least 90% confluent at time of addition of triptolide. Non-specific binding of [^3H]-triptolide was assessed by the pre-incubation of 2 μM (non-labeled) triptolide for one hour. Following cold competition (or DMSO) 5, 10, 20, 50, or 100 nM of [^3H]-triptolide was added into the cultures for an additional one hour, and then cells were lysed and counted for binding activity.

Compound	profile of transcriptional repression ([1]; 0.1-10 μM)	competition for [^3H]-triptolide binding ([2]; HeLa cells)	displacement of [^3H]-triptolide binding ([2]; 1 or 10 μM competitor one hour before [^3H]-triptolide, HeLa cells)	effect on cells ([3]; 25 nM)	profile of cell death ([3]; 0.1-10 μM, 24 hours)	effect on NFκB transcriptional activity ([1]; 1 μM)	cell viability ([3]; 0.1 μM, 24 hours)	cell growth ([3]; 0.1 μM, out to 72 hours)	cell death ([3]; 1 μM, 24 hours)	total cellular counts found in the cytosolic fraction ([4]; S-100)	cellular fraction bound ([4]; S-100 / P-100 fractionation)	increase of binding ([5]; 10 mM EGTA for one hour in calcium containing medium)	increase of [^3H]-triptolide binding ([5]; absence of extracellular calcium for 16 hours)	binding capacity per cell (Bmax) [6]	nature of binding interaction ([2]; excess unlabeled triptolide added after [^3H]-triptolide)
CC(C)[C@]12O[C@H]1[C@@H]1O[C@@]13[C@@]1(C)CCC4=C(COC4=O)[C@@H]1C[C@@H]1O[C@@]13C2=O [analog (3), Triptonide]	mimicked triptolide with no significant difference	higher competitive ability than triptolide itself	near complete	only a growth suppressive effect	mimicked triptolide with no significant difference	–	–	–	–	–	–	–	–	–	–
CC(C)C1(O)C(O)C2OC23C2(C)CCC4=C(COC4=O)C2CC2OC23C1O (stereo not shown) [analog (2), Triol-Triptolide]	–	efficiently competes	–	–	–	no effect	not different from the untreated control	overall growth suppressive effect	greater than 50%	–	–	–	–	–	–
CC(C)[C@]12O[C@H]1[C@@H]1O[C@]13[C@]1(O[C@H]1C[C@H]1C4=C(CC[C@@]13C)C(=O)OC4)[C@@H]2O [[^3H]-triptolide]	–	–	–	–	–	–	–	–	–	25%	predominantly to the membrane fraction (P-100)	~2 fold	2-4 fold	99±19 fmol triptolide bound/10^5 cells	reversible
